One block for each compound: values may come before it.
Legend:
[1] = AUC in mice at 50 mg/kg after 4 hrs; assay type: ADME, organism-based; set-up: time < 4 hr, dose 50 mg/kg; conditions: mouse, plasma
[2] = Cmax in mice at 50 mg/kg after 4 hrs; assay type: ADME, organism-based; set-up: dose 50 mg/kg; conditions: mouse, in vivo
Cytochrome P450 3A4 = Cytochrome P450 3A4 (Homo sapiens, UniProt P08684); assay: Inhibitory activity against CYP3A4
hERG = hERG (Homo sapiens, UniProt Q12809); assay: Inhibitory activity against hERG by patch-clamp assay at 1 uM; assay type: functional
Sequence of hERG (Q12809 whole entry): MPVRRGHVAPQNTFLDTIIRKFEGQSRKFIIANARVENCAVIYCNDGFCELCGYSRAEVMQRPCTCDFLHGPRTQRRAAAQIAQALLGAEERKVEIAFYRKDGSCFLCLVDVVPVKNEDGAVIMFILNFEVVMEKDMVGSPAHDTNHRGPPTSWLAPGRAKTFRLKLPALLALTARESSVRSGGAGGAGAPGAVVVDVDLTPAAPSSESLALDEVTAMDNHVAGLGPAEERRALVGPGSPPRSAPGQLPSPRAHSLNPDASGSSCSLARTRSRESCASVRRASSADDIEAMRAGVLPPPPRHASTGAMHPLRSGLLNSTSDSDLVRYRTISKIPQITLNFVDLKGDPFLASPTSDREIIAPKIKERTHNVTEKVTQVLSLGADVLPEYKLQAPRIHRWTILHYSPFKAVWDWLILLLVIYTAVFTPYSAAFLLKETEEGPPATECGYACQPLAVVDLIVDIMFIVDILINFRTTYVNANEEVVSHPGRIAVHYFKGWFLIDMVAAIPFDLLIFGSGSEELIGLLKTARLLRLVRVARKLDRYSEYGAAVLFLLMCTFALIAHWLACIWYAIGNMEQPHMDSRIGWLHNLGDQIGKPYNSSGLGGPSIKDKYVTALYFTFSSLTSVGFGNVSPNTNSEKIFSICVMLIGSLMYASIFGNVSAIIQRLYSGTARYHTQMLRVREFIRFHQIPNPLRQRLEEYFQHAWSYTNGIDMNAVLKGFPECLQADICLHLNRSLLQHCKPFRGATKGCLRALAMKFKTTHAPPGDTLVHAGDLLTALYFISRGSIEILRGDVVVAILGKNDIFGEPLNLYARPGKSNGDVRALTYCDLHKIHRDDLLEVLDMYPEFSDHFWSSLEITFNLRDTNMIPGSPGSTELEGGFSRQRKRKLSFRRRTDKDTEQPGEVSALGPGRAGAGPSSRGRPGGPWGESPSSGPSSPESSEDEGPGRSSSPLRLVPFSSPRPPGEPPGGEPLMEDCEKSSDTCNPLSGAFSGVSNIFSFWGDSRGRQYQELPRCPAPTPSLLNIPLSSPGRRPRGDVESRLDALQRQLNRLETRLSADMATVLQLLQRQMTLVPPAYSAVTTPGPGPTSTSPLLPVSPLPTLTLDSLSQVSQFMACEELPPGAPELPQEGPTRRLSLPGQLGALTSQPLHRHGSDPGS

[3] = target: Voltage-gated inwardly rectifying potassium channel KCNH2 (Homo sapiens, UniProt Q12809); assay: Inhibitory activity against hERG by patch-clamp assay; assay type: functional
Sequence of Voltage-gated inwardly rectifying potassium channel KCNH2 (Q12809 whole entry): as above

[4] = target: Vascular endothelial growth factor receptor 2 (Mus musculus, UniProt P35918); assay: Inhibitory activity against Flk1
Sequence of Vascular endothelial growth factor receptor 2 (P35918 whole entry): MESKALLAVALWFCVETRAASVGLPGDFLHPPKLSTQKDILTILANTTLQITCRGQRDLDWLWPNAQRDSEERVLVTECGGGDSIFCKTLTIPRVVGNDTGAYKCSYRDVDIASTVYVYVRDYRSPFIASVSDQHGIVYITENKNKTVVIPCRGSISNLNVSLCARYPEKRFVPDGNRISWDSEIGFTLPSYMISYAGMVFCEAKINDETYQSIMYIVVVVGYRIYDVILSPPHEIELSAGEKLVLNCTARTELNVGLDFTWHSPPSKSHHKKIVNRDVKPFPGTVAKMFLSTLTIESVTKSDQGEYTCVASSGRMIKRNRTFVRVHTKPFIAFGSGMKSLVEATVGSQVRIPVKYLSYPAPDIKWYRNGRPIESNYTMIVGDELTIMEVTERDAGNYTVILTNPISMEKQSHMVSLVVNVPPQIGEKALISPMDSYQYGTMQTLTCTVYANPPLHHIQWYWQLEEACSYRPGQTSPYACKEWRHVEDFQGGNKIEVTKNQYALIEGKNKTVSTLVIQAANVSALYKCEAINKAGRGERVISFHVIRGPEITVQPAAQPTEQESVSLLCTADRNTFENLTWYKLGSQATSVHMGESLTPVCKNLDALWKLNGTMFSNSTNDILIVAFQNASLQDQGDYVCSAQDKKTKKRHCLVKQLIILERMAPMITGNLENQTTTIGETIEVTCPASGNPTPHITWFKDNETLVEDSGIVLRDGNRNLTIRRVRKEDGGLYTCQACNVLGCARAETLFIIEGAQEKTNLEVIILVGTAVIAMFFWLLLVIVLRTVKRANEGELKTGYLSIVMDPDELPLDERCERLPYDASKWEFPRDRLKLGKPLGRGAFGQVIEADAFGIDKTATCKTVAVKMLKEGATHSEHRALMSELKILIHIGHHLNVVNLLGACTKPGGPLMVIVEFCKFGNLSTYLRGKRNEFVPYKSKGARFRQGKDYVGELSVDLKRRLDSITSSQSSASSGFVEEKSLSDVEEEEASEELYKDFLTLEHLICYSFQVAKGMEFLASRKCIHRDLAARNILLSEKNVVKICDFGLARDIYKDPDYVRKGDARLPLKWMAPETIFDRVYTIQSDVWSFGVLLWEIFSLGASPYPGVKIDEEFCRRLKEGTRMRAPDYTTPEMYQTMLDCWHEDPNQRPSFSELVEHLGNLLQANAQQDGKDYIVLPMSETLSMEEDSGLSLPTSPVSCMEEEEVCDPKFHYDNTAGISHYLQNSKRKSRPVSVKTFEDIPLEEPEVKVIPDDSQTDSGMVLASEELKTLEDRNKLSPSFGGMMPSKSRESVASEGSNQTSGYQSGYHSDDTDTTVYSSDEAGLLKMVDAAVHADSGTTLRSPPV

H3396 [5] = assay: Antitumor activity against H3396 cell xenografted in athymic mice at 60 mg/kg; assay type: functional, Homo sapiens
[6] = AUC in BALB/c mouse at 10 mg/kg, iv after 24 hrs; assay type: ADME, organism-based; set-up: time < 24 hr, dose 10 mg/kg, route intravenous; conditions: plasma
[7] = Half life in BALB/c mouse at 10 mg/kg, iv after 24 hrs; assay type: ADME, organism-based; set-up: dose 10 mg/kg, route intravenous; conditions: in vivo
[8] = Mean residence time in BALB/c mouse at 10 mg/kg, iv after 24 hrs; assay type: ADME, organism-based; set-up: dose 10 mg/kg, route intravenous; conditions: in vivo
[9] = Systemic clearance in BALB/c mouse at 10 mg/kg, iv after 24 hrs; assay type: ADME, organism-based; set-up: dose 10 mg/kg, route intravenous; conditions: in vivo
[10] = Volume of distribution in BALB/c mouse at 10 mg/kg, iv after 24 hrs; assay type: ADME, organism-based; set-up: dose 10 mg/kg, route intravenous; conditions: in vivo, read-out: Vss
[11] = AUC in BALB/c mouse at 60 mg/kg, po after 24 hrs; assay type: ADME, organism-based; set-up: time < 24 hr, dose 60 mg/kg, route oral; conditions: plasma
[12] = Half life in BALB/c mouse at 60 mg/kg, po after 24 hrs; assay type: ADME, organism-based; set-up: dose 60 mg/kg, route oral; conditions: in vivo
[13] = Oral bioavailability in BALB/c mouse at 60 mg/kg, po after 24 hrs; assay type: ADME, organism-based; conditions: in vivo
H3396 [14] = assay: Antitumor activity against H3396 cell xenografted in athymic mice at 90 mg/kg; assay type: functional, Homo sapiens
[15] = Cmax in rat at 25 mg/kg as solution after 24 hrs; assay type: ADME, organism-based; set-up: dose 25 mg/kg; conditions: in vivo
[16] = Cmax in rat at 25 mg/kg as micronized suspension after 24 hrs; assay type: ADME, organism-based; set-up: dose 25 mg/kg; conditions: in vivo
[17] = Cmax in rat at 100 mg/kg as micronized suspension after 24 hrs; assay type: ADME, organism-based; set-up: dose 100 mg/kg; conditions: in vivo
[18] = Cmax in rat at 200 mg/kg as micronized suspension after 24 hrs; assay type: ADME, organism-based; set-up: dose 200 mg/kg; conditions: in vivo
[19] = AUC in rat at 25 mg/kg as solution after 24 hrs; assay type: ADME, organism-based; set-up: time < 24 hr, dose 25 mg/kg; conditions: plasma
[20] = AUC in rat at 25 mg/kg as micronized suspension after 24 hrs; assay type: ADME, organism-based; set-up: time < 24 hr, dose 25 mg/kg; conditions: plasma
[21] = AUC in rat at 100 mg/kg as micronized suspension after 24 hrs; assay type: ADME, organism-based; set-up: time < 24 hr, dose 100 mg/kg; conditions: plasma
[22] = AUC in rat at 200 mg/kg as micronized suspension after 24 hrs; assay type: ADME, organism-based; set-up: time < 24 hr, dose 200 mg/kg; conditions: plasma
[23] = Tmax in male BALB/c mice; assay type: ADME, organism-based; conditions: mouse, in vivo

Sequence of Cytochrome P450 3A4 (P08684 whole entry): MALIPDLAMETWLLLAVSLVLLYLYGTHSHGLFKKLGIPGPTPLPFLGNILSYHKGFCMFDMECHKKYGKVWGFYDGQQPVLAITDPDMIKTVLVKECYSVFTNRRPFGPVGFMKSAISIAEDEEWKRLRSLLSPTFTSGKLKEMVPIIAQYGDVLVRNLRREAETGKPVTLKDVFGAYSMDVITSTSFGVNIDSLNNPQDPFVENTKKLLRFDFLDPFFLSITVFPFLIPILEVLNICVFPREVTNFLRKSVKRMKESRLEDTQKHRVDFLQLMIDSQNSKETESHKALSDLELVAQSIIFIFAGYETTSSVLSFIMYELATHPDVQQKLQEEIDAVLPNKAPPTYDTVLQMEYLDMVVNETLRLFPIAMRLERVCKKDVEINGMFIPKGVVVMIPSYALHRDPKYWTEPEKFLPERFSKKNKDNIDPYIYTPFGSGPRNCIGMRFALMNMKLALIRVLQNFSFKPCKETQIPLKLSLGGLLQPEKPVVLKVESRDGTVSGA

AUC at 4 h [1]: 14 µM·h | Cmax [2]: 4.2 µM | IC50 (Cytochrome P450 3A4): 1000 nM
SMILES: Cc1cc2c(F)c(Oc3ncnn4cc(OCCCN5CCCCC5)c(C)c34)ccc2[nH]1
inhibition at 1 µM (hERG): 70%

AUC at 4 h [1]: 2.2 µM·h | Cmax [2]: 0.7 µM | IC50 (Cytochrome P450 3A4): 700 nM
SMILES: Cc1cc2c(F)c(Oc3ncnn4cc(OCCC5CCN(C)CC5)c(C)c34)ccc2[nH]1

AUC at 4 h [1]: 20.5 µM·h | Cmax [2]: 5.9 µM
SMILES: Cc1cc2c(F)c(Oc3ncnn4cc(OCCCN5CCCC5)c(C)c34)ccc2[nH]1
inhibition at 1 µM (hERG): 66%

AUC at 4 h [1]: 9.9 µM·h | Cmax [2]: 3 µM
SMILES: Cc1cc2c(F)c(Oc3ncnn4cc(OCCN5CCC(O)C5)c(C)c34)ccc2[nH]1 (single isomer, unassigned)
inhibition at 1 µM (hERG): 38%

AUC at 4 h [1]: 136 µM·h | Cmax [2]: 41 µM | IC50 [4]: 89 nM | Ki [4]: 28 nM | AUC at 24 h [6]: 49 µM·h | half-life [7]: 2.7 h | MRT [8]: 3.6 h | clearance [9]: 9.3 mL/min/kg | Vd [10]: 2 L/kg | AUC at 24 h [11]: 224 µM·h | half-life [12]: 3.6 h | bioavailability [13]: 88% | Cmax [15]: 6.4 µM | Cmax [16]: 0.55 µM | Cmax [17]: 2.05 µM | Cmax [18]: 1.71 µM | AUC at 24 h [19]: 13.4 µM·h | AUC at 24 h [20]: 3.35 µM·h | AUC at 24 h [21]: 8.43 µM·h | AUC at 24 h [22]: 7.61 µM·h | Tmax [23]: 1 h
SMILES: Cc1cc2c(F)c(Oc3ncnn4cc(OC[C@@H](C)O)c(C)c34)ccc2[nH]1 [BRIVANIB]
IC50 [3]: 18000 nM | Activity (H3396 [5]): 85% | Activity (H3396 [14]): 97%

More lines, now with the values behind:

SMILES: COC[C@@H](O)COc1cn2ncnc(Oc3ccc4[nH]c(C)cc4c3F)c2c1C
AUC at 4 h [1]: 128 µM·h | Cmax [2]: 41 µM | IC50 (Cytochrome P450 3A4): 1000 nM | IC50 [3]: 18000 nM

SMILES: Cc1cc2c(F)c(Oc3ncnn4cc(OCCCNS(C)(=O)=O)c(C)c34)ccc2[nH]1
AUC at 4 h [1]: 96 µM·h | Cmax [2]: 27 µM | IC50 (Cytochrome P450 3A4): 1000 nM

SMILES: Cc1cc2c(F)c(Oc3ncnn4cc(O)c(C)c34)ccc2[nH]1
AUC at 4 h [1]: 0.2 µM·h | Cmax [2]: 0.2 µM

SMILES: Cc1cc2c(F)c(Oc3ncnn4cc(OCCCS(C)(=O)=O)c(C)c34)ccc2[nH]1
AUC at 4 h [1]: 185 µM·h | Cmax [2]: 57 µM | IC50 (Cytochrome P450 3A4): 17000 nM | IC50 [3]: 20000 nM

SMILES: Cc1cc2c(F)c(Oc3ncnn4cc(OC[C@H](C)O)c(C)c34)ccc2[nH]1
AUC at 4 h [1]: 146 µM·h | Cmax [2]: 56 µM
